Entries after “also recorded” stand apart in the source; their conditions may differ.

Usually ILS stands for how much longer treated animals lived than controls.

One series has as its system sarcoma S 180. Briefly: Anti-tumour activity, sarcoma S 180 ascite, i.p. graft, i.p. treatment. Type of series: in vivo, mouse (Swiss female). To be noted: for ILS: single i.p. on D1. Here is the method:
Swiss female mice (Evic-Ceba, Bordeaux) of 20 to 22 g
10^6 cells intraperitoneally grafted on D0
intraperitoneal treatment 24 hours later, D1, in one single injection.
(§1) The solutions of these compounds were prepared extemporaneously.

The test system of another series is L 1210 cells. Kind of series: Cellular penetration of platinum in vivo into L 1210 cells. More on the design: species or system mouse (DBA/2). To be noted: PHIC 150 mg/kg, two hours after treatment on D3. The procedure:
DBA/2 mice received 10^6 L 1210 cells on D0 and were treated three days later with an amount of platinum compound equal to the LD0 in the healthy mouse. Two hours after treatment on D3, the animals were sacrificed. About 20.10^6 cells were extracted from the peritoneum and washed several times so as to eliminate the extra-cellular platinum and also any intracellular platinum which was not bound in a covalent manner with the cellular organelles. Platinum was monitored by atomic absorption for whole cells and also on the DNA which was purified by phenol extraction. […] This corresponds to 180.10^-16 g of platinum per leukemic cell. Under these conditions, one fixed platinum atom per 3000 nucleotides was found, i.e. a total of 1% of the amount which penetrated the cells was complexed to DNA. […] 10^-16 of platinum per cell.

A short description of series [1]: Stability in sodium chloride solution. The class given is physicochemical. To be noted: 9% sodium chloride. The procedure:
This compound has an exceptionally high degree of solubility.
as §1

Take `NC1CCCCC1N.O=C([O-])CC(C(=O)[O-])C([O-])C(=O)[O-].[H+].[H+].[Pt+2]` (stereo not drawn) [PHIC, cis-isocitrato (1,2-diaminocyclohexane) platinum (II)]: the ILS in the series with sarcoma S 180 (10 mg/kg) stood at 29%; with sarcoma S 180 (25 mg/kg), 46%; with sarcoma S 180 (50 mg/kg), 112%; in the series on sarcoma S 180 (100 mg/kg), 171%. The Survivals with sarcoma S 180 (S 180, 10 mg/kg i.p. on D1, day 60) is reported as 0%; in the series with sarcoma S 180 (S 180, 25 mg/kg i.p. on D1, day 60), 0%; in the series on sarcoma S 180 (S 180, 50 mg/kg i.p. on D1, day 60) it was 20%; with sarcoma S 180 (S 180, 100 mg/kg i.p. on D1, day 60), 40%. In addition, in the series on sarcoma S 180 (sarcoma S 180), the “anti-tumour activity (in words)” value is given as “Very marked anti-tumor activity; also recorded: exerts the anti-tumour activity”. Besides, the “Amount of penetrating platinum per cell” value with L 1210 cells (PDD 9 mg/kg) came to 7e-14 g. In the series with L 1210 cells, the “platinum per cell” value is given as 700. 10^-16. Further, in series [1], the “change to chlorinated derivative in sodium chloride solution” value is “changing in 24 hours to a yellow chlorinated derivative which precipitates”.

Values taken from patent publication US4452812A, “Organic complex of platinum, its preparation and its use for treating malignant tumors” (Sanofi, priority 1980, dated 1984).
